This note sets out measurements from PMC10552397 (Cell Communication and Signaling : CCS, 2023).

One assay has as its target T1, SDC4 (Homo sapiens, UniProt P31431).
T1 construct: endogenous in cells; host or cells: HeLa wt cells
T1 sequence (P31431 19-198): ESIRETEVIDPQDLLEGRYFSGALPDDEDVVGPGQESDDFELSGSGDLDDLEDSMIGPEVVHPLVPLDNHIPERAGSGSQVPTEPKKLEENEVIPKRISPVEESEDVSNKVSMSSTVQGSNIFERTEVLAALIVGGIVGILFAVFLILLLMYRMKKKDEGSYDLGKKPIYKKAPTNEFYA
Nature of the assay: TPP-TR/RTSA, SDC4. The assay is classed as binding. On the procedure:
TPP was performed essentially as described, but with major modifications to the TMT labeling sets and statistical data analysis for TPP-TR.
Adherent cells were washed in the dish once with DPBS and harvested by Trypsin–EDTA (0.25%, Thermo Fisher Scientific, Waltham, MA, USA, #25,200,056) treatment. […]
After temperature treatment, samples were supplemented with lysis buffer (final concentrations: 0.36 U/µL benzonase, 1.5 mM MgCl2, 1 mM Na3VO4, 10 mM NaF, 2.5 mM Na4P2O7, 0.8% w/v NP-40) for 1 h on ice. […] The total protein concentration of the resulting cell extracts containing the fraction of soluble, non-denatured proteins was determined (Pierce 660 nm Protein Assay, BSA as standard). […] The two (37 °C or 50 °C) x ten (concentrations) x three (replicates) = 60 TPP-CCR samples and two (treatment and control) x ten (temperatures) x three (replicates) = 60 TPP-TR samples were analyzed by LC–MS/MS. GRASP55 was additionally quantified from the TPP-TR samples by immunoblotting as described in the respective section.
For TPP-CCR, SP3 was performed as described with slight modifications to the original protocol using on average 5 µg total protein per sample and resulting in theoretically 5 µg peptides in 22 µL 50 mM triethylammonium bicarbonate per sample. […] This volume was calculated such that the lowest two temperature samples (36.5 °C and 41.2 °C) contained 10 µg total protein on average. […]

In the next assay the test system is HeLa GRASP55 KO cells. Nature of the assay: Transmission electron microscopy of Golgi apparatus, HeLa GRASP55 KO. Type of assay: cell-based. The settings on record: 100 nM, 24 h, HeLa GRASP55 KO (also wt). As to the method:
HeLa wt and HeLa GRASP55 KO cells were seeded into 10 cm dishes. […] After treatment, cells were washed with Dulbecco´s phosphate-buffered saline (DPBS, Thermo Fisher Scientific, Waltham, MA, USA, #14,190,250) and then fixed using 2.5% glutaraldehyde and 4% paraformaldehyde in 0.1 M sodium cacodylate, pH 7.4 overnight at 4 °C. Then, cells were harvested with a cell scraper and centrifuged at 4,000 × g for 5 min. Cell pellets were washed twice with 0.1 M sodium cacodylate buffer, pH 7.2, then heated to 40 °C and embedded into 3% low melting agarose. The agarose was dissolved at 40 °C in a water bath and after aspiration of the supernatant a volume of approximately 10 µL was left, which was resuspended in agarose. After centrifugation at approximately 4,000 x g for 2 min, the samples were covered with 1% OsO4 in 0.1 M sodium cacodylate buffer for 60 min at RT. After washing two times with sodium cacodylate buffer for 10 min and twice with 70% EtOH for 15 min at RT, block contrast was applied using 1% uranyl acetate/1% phosphorotungstic acid in 70% EtOH (freshly prepared and filtered) for 1 h at RT. The samples were dehydrated in a graded ethanol series (90% EtOH, 96% EtOH, 100% EtOH) and embedded in SPURR epoxy resin (Serva, Heidelberg, Germany, #21,050). After polymerization at 70 °C for 24 h, 70 nm ultrathin sections were cut using an Ultracut EM UC7 (Leica, Wetzlar, Germany). […]

Take `CCCCCC1=C/C(=C/c2[nH]c(-c3ccc[nH]3)cc2OC)N=C1C` [Prodigiosin, prodigiosin]: the ΔTm at 0.1 µM on SDC4 (100 nM vs DMSO, 6 h, HeLa wt, read-out: Mean_dTm) worked out at 0.55 °C. Moreover, on SDC4 (RTSA distance score), the distancescore is reported as 10.308. Besides, the “Golgi apparatus morphology (TEM)” value in the assay with HeLa GRASP55 KO cells is listed as “Severe structural changes of the Golgi apparatus”.
